# Source: publication PMC6321321 (Pharmaceutics, 2018)
# Experiments:
# Caco-2 cell monolayers [1] = experiment: TEER measurement of Caco-2 monolayer; assay type: cell-based, human; details: 37 °C, N=3
# Protocol: In preparation for the assays, the cell membranes were allowed to equilibrate for 30 min in transport buffer; HBSS (pH 7.4) with 0.001% MC was added to the apical (0.5 mL) and basal (1.5 mL) chambers of the transwell.
# The TEER of the Caco-2 monolayer was measured to confirm cell growth and differentiation on the insert filter of the transwell using a Millicell ERS-2 (Millipore Corp., Bedford, MA, USA). Before seeding the Caco-2 cells, the electrical resistance of the insert filter in the medium was measured and subtracted from the total electrical resistance determined for the monolayer to calculate the intrinsic TEER of the monolayer. The TEER of the monolayer was measured at the end of the 2 h incubation to detect any negative effects of the applied L-tryptophan on the intercellular tight junctions. The TEER is expressed as a percentage calculated by dividing the TEER value (Ω cm^2) at 2 h by the initial value.
# Caco-2 cells [2] = experiment: In vitro LDH leakage; assay type: cell-based, human; details: HBSS pH 7.4 with 0.001% MC, 300–2400 μM, 120 min, 37 °C, relative to 0.8% Triton X-100, N=3
# Protocol: (§2) To assess the cytotoxic effects of L-tryptophan, the integrity of the cell membrane after treatment with the CPPs was examined by measuring the lactate dehydrogenase (LDH) released from the cytoplasm under both in vitro and in situ conditions.
# In the in vitro assay, the Caco-2 cells were grown in 24-well plates with a 1.88 cm^2 culture area (Nippon Becton Dickinson) at the density of 1.0 × 10^5 cells/cm^2 and then grown in completed DMEM for 3 or 4 days. Before the addition of L-tryptophan, cell membranes were allowed to equilibrate in 0.5 mL of assay buffer for 30 min. HBSS containing 0.001% MC (pH 7.4) was added to the wells as the transport buffer. After a 30 min pre-incubation with transport buffer, the assay was initiated by replacing 50 μL of transport buffer with 50 μL of L-tryptophan stock solution (ten times concentration) or transport buffer. […] The incubation buffer was collected and LDH released from the cytoplasm into the incubation buffer was determined using a CytoTox 96 Non-Radioactive Cytotoxicity Assay kit (Promega Corp., Madison, WI, USA). Cytotoxicity was expressed as the percentage calculated by dividing the absorbance of the vehicle (HBSS) or the L-tryptophan-treated sample by that of a sample treated with 0.8% Triton X-100, according to the instructions of assay kit.
# insulin = molecular target: T1, insulin (Homo sapiens, UniProt P01308); experiment: SPR-based binding assay on immobilized insulin
# T1 construct: purchased Wako Pure Chemical Industries, Ltd. (Osaka, Japan)
# T1 sequence (P01308 25-54 limits assumed): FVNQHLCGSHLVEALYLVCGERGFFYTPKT
# T1 sequence (P01308 90-110 limits assumed): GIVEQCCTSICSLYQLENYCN
# Protocol: Reference surfaces were prepared by amine coupling activation followed by immediate deactivation. […] At the end of each cycle, the surface was regenerated by a 30 s injection of 1 M NaCl. […] Each sensorgram was determined by subtracting nonspecific binding on the surface of the reference flow cell from total binding on the immobilized-insulin surface.
# rat ileal segments = experiment: In situ LDH leakage from rat ileal segments; assay type: in vivo; details: rat ileal loop; insulin 50 IU/kg with L-tryptophan 16 and 32 mM; fluid collected 60 min after administration; N=3; positive control 5% sodium taurodeoxycholate
# Protocol: as §2
# For the trial with the highest concentration of L-tryptophan (50 mM), L-arginine (40 mM) was added as a solubilizing agent. For this test, 5% sodium taurodeoxycholate was used as a positive control. At 60 min after administration, the ileal loop was washed with 5.0 mL of PBS and then intestinal fluid was collected. After adjusting the collected intestinal fluid to a total volume of 6.0 mL with PBS, the activity of LDH (Unit) leaked into the intestinal fluid was determined using an LDH kit (Promega Corp.).
# [3] = In vivo oral administration study, blood glucose levels; details: mice fasted 24 h; oral gavage insulin 50 IU/kg with L-tryptophan 32 mM (100 μL); blood glucose 0-360 min; N=6-8
# Protocol: Blood glucose levels were measured (One Touch Ultra View, Johnson & Johnson K.K., Tokyo, Japan) by collection of blood (one drop) from a small cut in the tail vein at t = 0 (prior to dosing), 15, 30, 60, 120, 180, 240, 300 and 360 min after administration. Blood glucose levels are depicted as percentage of the initial value in same mouse. Mice were trained with oral dosing and tail cutting at 24 h and 60 min prior to actual drug administration to avoid the unexpected elevation of blood glucose levels during experiments.
# Caco-2 cells [4] = experiment: Cell viability assay (WST-8, CCK-8); assay type: cell-based, human; details: completed DMEM, 600–2400 μM, 2 h then 3 h with CCK-8, N=6-11
# Protocol: To examine the cellular viability of Caco-2 cells exposed to L-tryptophan, a WST-8 assay was performed with Cell Counting Kit-8 (CCK-8, Dojindo Laboratories, Kumamoto, Japan). The Caco-2 cells were grown in 96-well plates with a 0.33 cm^2 culture area (Nippon Becton Dickinson) to a density of 3.0 × 10^4 cells/cm^2 and then grown in 100 μL of completed DMEM for 3 or 4 days. In this assay, the completed DMEM was used in place of the incubation buffer to prevent the possible loss of cell viability during total 5 h incubation in HBSS. First, 10 μL of L-tryptophan stock solution (eleven times concentration) or transport buffer was added to 100 μL of completed DMEM and the cells were incubated with various concentrations of L-tryptophan (600–2400 μM) for 2 h. Then, 10 μL of CCK-8 reagent was added to the wells and the cells were incubated for an additional 3 h to allow for the reductive reaction of WST-8. The resulting absorbances of the incubated solution in the wells were read with a microplate reader (Synergy HT, BioTek Instruments Inc.) at a wavelength of 450 nm. In this assay, 0.8% of Triton X-100 was used as a positive control, same as the LDH assay.
# [5] = insulin co-administered with additive at 40 mM; cited from earlier work
# Caco-2 cell monolayers [6] = details: 9.6 mM (equivalent to 4.2 mg/kg in the animal study) added to transwell; cited from earlier work
# [7] = In situ closed ileum loop absorption of dextrans and peptide drugs with or without L-tryptophan
# Protocol: Additional i.p. injections of sodium pentobarbital (12.5 mg/kg) were administered every 1 h to maintain anesthesia. The ileum was exposed following a small midline incision made carefully in the abdomen. Its proximal to ileocecal junction segments (length = 10 cm) were cannulated at both ends using polypropylene tubing and ligated securely to prevent fluid loss. To wash out the intestinal contents, PBS warmed to 37 °C was circulated through the cannula at 5.0 mL/min for 4 min using an infusion pump. The cannulation tubing was removed, the segments were closed tightly and returned carefully to their original location inside the peritoneal cavity. Rats were kept on the board at 37 °C for an additional 30 min to calm biological reactions such as elevated blood glucose levels resulting from the stress imposed by surgery. […] To examine dose dependency, the final concentrations of tryptophan were adjusted to 4, 8, 16 and 32 mM. […]
# (§1) During the experiment, 0.25 mL blood aliquots were taken from the jugular vein at 0, 5, 10, 15, 30, 60, 120 and 180 min after dosing. […] The plasma concentrations of FDs were measured with a microplate fluorimeter (Synergy HT, BioTek Instruments Inc., Winooski, VT, USA) at excitation and emission wavelengths of 485 and 528 nm, respectively.
# [8] = In situ closed ileum loop administration study: insulin co-administered with additives; details: in situ rat ileal loop; for Effect on the intestinal absorption of insulin (in words): insulin 50 IU/kg co-administered with additive at 32 mM, N=3-8
# Protocol: Additional i.p. injections of sodium pentobarbital (12.5 mg/kg) were administered every 1 h to maintain anesthesia. The ileum was exposed following a small midline incision made carefully in the abdomen. Its proximal to ileocecal junction segments (length = 10 cm) were cannulated at both ends using polypropylene tubing and ligated securely to prevent fluid loss. To wash out the intestinal contents, PBS warmed to 37 °C was circulated through the cannula at 5.0 mL/min for 4 min using an infusion pump. The cannulation tubing was removed, the segments were closed tightly and returned carefully to their original location inside the peritoneal cavity. Rats were kept on the board at 37 °C for an additional 30 min to calm biological reactions such as elevated blood glucose levels resulting from the stress imposed by surgery. […] To examine dose dependency, the final concentrations of tryptophan were adjusted to 4, 8, 16 and 32 mM. In the comparison study with three hydrophobic amino acids or metabolite of L-tryptophan, the final concentrations of L-isoleucine, L-proline, L-phenylalanine and serotonin were 32 mM. In the study examining the synergistic effect of L-arginine and L-tryptophan, the final concentration of L-arginine was fixed at 40 mM.
# as §1, with “dosing. The tuberculin syringes (1 mL, Terumo Corp., Tokyo, Japan) were heparinized by the standard procedure of coating the syringe wall with aspirated heparin and then expelling all the heparin.” for “dosing.”
# Caco-2 cell monolayers [9] = experiment: Transcellular transport assay: insulin permeation through Caco-2 monolayer; details: Caco-2 transwell, apical to basal, insulin 15 μM co-incubated with additive 2.4 or 16 mM, HBSS pH 7.4, 2 h, 37 °C; N=3
# Protocol: For TEER measurement, Caco-2 cells were grown in 12-well transwell plates with a 1.13 cm^2 culture area (collagen-coated polytetrafluoroethylene (PTFE) membrane with 0.4 μm pore size, Corning Inc., Corning, NY, USA). The cells were cultured to a density of 1.0 × 10^5 cells/cm^2. […] The culture medium was changed every second day and the electrical resistance was monitored by the method described below. Each well consisted of apical (top) and basal (bottom) chambers, which were separated by a collagen-coated polytetrafluoroethylene membrane with a pore size of 0.4 μm and a filter area of 1.12 cm^2.
# In preparation for the assays, the cell membranes were allowed to equilibrate for 30 min in transport buffer; HBSS (pH 7.4) with 0.001% MC was added to the apical (0.5 mL) and basal (1.5 mL) chambers of the transwell. […] During the incubation, the Caco-2 monolayer was kept at physiological temperature (37 °C).
compound,measurement,setting,value
"CCCCCCCCCC(=O)[O-].[Na+] [C10, sodium caprate]",Change in TEER of Caco-2 cell monolayers,"Caco-2 cell monolayers [1]; typical enhancer as positive control, concentration not given, 2 h",significant reduction in TEER
"N[C@@H](Cc1c[nH]c2ccccc12)C(=O)O [L-Tryptophan, L-tryptophan]",Release of LDH into the media (in vitro),Caco-2 cells [2],no release of LDH
same,Binding to immobilized insulin (SPR sensorgram),"insulin; CM5 chip, analyte 2–200 μM, HBSS pH 7.4 with 0.001% MC, 25 °C, 90 s injection",do not show an increase
same,Leakage of LDH into intestinal fluid (in situ),rat ileal segments,negligible
same,Change in TEER of Caco-2 cell monolayers,"Caco-2 cell monolayers [1]; apical, insulin 15 μM with additive 600–16,000 μM, HBSS pH 7.4, 2 h, TEER at 120 min vs initial",No change in the TEER values
same,Hypoglycemic reaction / oral absorption of insulin (blood glucose levels),[3],could enhance the oral absorption of insulin
same,Cell viability (WST-8),Caco-2 cells [4],no decrease in cell viability
N=C(N)NCCC[C@H](N)C(=O)O [L-arginine],Tmax of insulin absorption after co-administration,[5],12.8 ± 0.9 min
same,Binding with insulin,insulin; data not shown,showed no binding with insulin
same,Opening of tight junctions in Caco-2 cell monolayers,Caco-2 cell monolayers [6],no opening of tight junctions was observed
same,"Effect on the intestinal absorption of peptide drugs (GLP-1, Exendin-4)",[7]; data not shown,had no effect on the intestinal absorption of such peptide drugs
CC[C@H](C)[C@H](N)C(=O)O [L-isoleucine],Effect on the intestinal absorption of insulin (in words),[8],no stimulatory effect on insulin absorption
N[C@@H](Cc1ccccc1)C(=O)O [L-phenylalanine],Effect on the intestinal absorption of insulin (in words),[8],no stimulatory effect on insulin absorption
O=C(O)[C@@H]1CCCN1 [L-proline],Effect on the intestinal absorption of insulin (in words),[8],no stimulatory effect on insulin absorption
"NCCc1c[nH]c2ccc(O)cc12 [Serotonin, serotonin]",Effect on the intestinal absorption of insulin (in words),[8],could enhance the intestinal absorption of insulin
same,Permeation of insulin through Caco-2 monolayer,Caco-2 cell monolayers [9],no stimulatory effect on the permeation of insulin
same,Change in TEER of Caco-2 cell monolayers,"Caco-2 cell monolayers [1]; apical, insulin 15 μM with additive 2.4 or 16 mM, HBSS pH 7.4, 2 h",increased the TEER
GLP-1,"AUC, −L-Tryptophan","[7]; rat, in vivo, 1.25 mg/kg",1.35 ± 0.27 ng·h/mL
RQIKIWFQNRRMKWKK [L-penetratin],Onset of action / of insulin absorption after co-administration,"[8]; insulin 50 IU/kg co-administered with L-tryptophan 8-32 mM, L-penetratin 0.5 mM or D-tryptophan 16 and 32 mM, time after administration",15 min
